Data taken from US20250304620A1, “ANTIMICROBIAL PEPTIDE AND APPLICATION THEREOF” (priority 2023, published 2025).
In brackets after ≈: the same amount, converted by molar mass. Marks after values point to notes of the source that are not given here. Non-standard residues stand in square brackets, D forms with d. Residues, ends and D or L forms follow the SMILES beside them. d2Nal = N[C@H](Cc1ccc2ccccc2c1)C(=O)O

Assays:
[1] = system: Staphylococcus aureus (NRS 384); assay: microbe, parasite or virus in culture; assay type: cell-based; settings: NRS 384
Outline: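 MICs were read against S. aureus strain NRS 384 using twofold serial dilution by CLSI microdilution rules. Levofloxacin and Cbf-K16 were the reference controls, and the test was repeated 5 times in parallel.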

[2] = system: Bacillus subtilis ATCC 6633; assay type: cell-based
Outline: (§1)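 Minimum inhibitory concentration served as the read-out, obtained with a twofold serial dilution microdilution method run per CLSI guidelines and performed in five parallel replicates.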

[3] = system: Candida albicans ATCC MYA-2876; assay type: cell-based
Outline: as §1

[4] = system: Candida glabrata ATCC 15126; assay type: cell-based
Outline: as §1

Candida krusei ATCC 6258 = assay type: cell-based
Outline: as §1

[5] = system: Candida tropicalis ATCC 750; assay type: cell-based
Outline: as §1

Candida utilis ATCC 9950 = assay type: cell-based
Outline: as §1

[6] = system: Corynebacterium ATCC 7715; assay type: cell-based
Outline: as §1

Enterococcus ATCC 29212 = assay type: cell-based
Outline: as §1

[7] = system: Escherichia coli ATCC 25922; assay type: cell-based
Outline: as §1

[8] = system: Klebsiella pneumoniae ATCC 700603; assay type: cell-based
Outline: as §1

[9] = system: Pseudomonas aeruginosa ATCC 27853; assay type: cell-based
Outline: as §1

[10] = system: Salmonella typhimurium ATCC 14028; assay type: cell-based
Outline: as §1

[11] = system: Serratia marcescens ATCC 29021; assay type: cell-based
Outline: as §1

[12] = system: Staphylococcus aureus ATCC 25923; assay type: cell-based
Outline: as §1

[13] = system: Trichophyton ATCC MYA-4438; assay type: cell-based
Outline: as §1

[14] = system: Shigella flexneri ATCC 12022; assay: MIC against clinically common bacterial strain; assay type: cell-based
Outline: as §1

[15] = system: Methicillin-resistant Staphylococcus aureus (MRSA); assay type: cell-based; settings: Methicillin-resistant
Outline: (§2)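 Broth serial twofold dilution per CLSI standards, run 5 times in parallel, gave MIC values for the peptides against clinically common resistant strains.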

[16] = system: carbapenem-resistant Escherichia coli (CREC); assay type: cell-based; settings: carbapenem-resistant (CREC)
Outline: as §2

[17] = system: carbapenem-resistant Klebsiella pneumoniae (CRKP); assay type: cell-based; settings: carbapenem-resistant (CRKP)
Outline: as §2

[18] = system: carbapenem-resistant Pseudomonas aeruginosa (CRPA); assay type: cell-based; settings: carbapenem-resistant (CRPA)
Outline: as §2

[19] = system: vancomycin-resistant Enterococcus (VRE); assay type: cell-based
Outline: as §2

[20] = system: Staphylococcus aureus (NRS 384); settings: NRS 384, 3 h
Method: Trypsin (250 U/mg, pH=8.0) and AMPs (LV-1 to LV-30) were mixed in a ratio of 1:10 (w/w) and added to a reaction buffer (0.2 M sodium phosphate, 1 mM CaCl2), pH 7.5), and then incubated at 37° C. for 3 h.

[21] = system: Pseudomonas aeruginosa ATCC 27853; assay: Injectable formulations on mice infected with peritonitis; assay type: in vivo, ICR mice; settings: twice a day for 3 days; for Number of mice that died on each day after infection: day 1 / Number of mice that died on each day after infection: day 2 / Number of mice that died on each day after infection: day 3 / Number of mice that died on each day after infection: day 4 / Number of mice that died on each day after infection: day 5 / Average survival times (Days): n = 10; for Average survival times (Days): observed for 14 d; for survival time of mice infected with Pseudomonas aeruginosa: tail vein, observed 14 d
Outline: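 Survival readout: deaths and survival time tracked for 14 d. Treatment was tail-vein injection by body weight, twice a day for 3 consecutive days, starting right after intraperitoneal challenge with 0.2 mL of 1×10^9 CFU/mL P. aeruginosa ATCC 27853 in male and female ICR mice.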

[22] = Serum stability assay (residual level by RP-HPLC); settings: human

CC(=O)N[C@H](CCCCN)C(=O)N[C@H](CCCCN)C(=O)N[C@H](CC(C)C)C(=O)N[C@H](CC(C)C)C(=O)N[C@H](Cc1ccc2ccccc2c1)C(=O)N[C@H](CCCNC(=N)N)C(=O)N[C@H](CC(C)C)C(=O)N[C@H](CCCCN)C(=O)N[C@H](Cc1ccc2ccccc2c1)C(=O)N[C@H](CCCNC(=N)N)C(=O)N[C@H](CCCCN)C(N)=O [LV-19] (Ac-[dK][dK][dL][dL][d2Nal][dR][dL][dK][d2Nal][dR][dK]-NH2)
MIC against Staphylococcus aureus (NRS 384) [1]: 1 µg/mL (≈ 0.618 µM)
MIC Bacillus subtilis ATCC 6633 [2]: 8 µg/mL (≈ 4.94 µM)
MIC Candida albicans ATCC MYA-2876 [3]: 8 µg/mL (≈ 4.94 µM)
MIC Candida glabrata ATCC 15126 [4]: 8 µg/mL (≈ 4.94 µM)
MIC Candida krusei ATCC 6258 (Candida krusei ATCC 6258): 16 µg/mL (≈ 9.89 µM)
MIC Candida tropicalis ATCC 750 [5]: 4 µg/mL (≈ 2.47 µM)
MIC Candida utilis ATCC 9950 (Candida utilis ATCC 9950): 8 µg/mL (≈ 4.94 µM)
MIC Corynebacterium ATCC 7715 [6]: 2 µg/mL (≈ 1.24 µM)
MIC Enterococcus ATCC 29212 (Enterococcus ATCC 29212): 2 µg/mL (≈ 1.24 µM)
MIC Escherichia coli ATCC 25922 [7]: 1 µg/mL (≈ 0.618 µM)
MIC Klebsiella pneumoniae ATCC 700603 [8]: 2 µg/mL (≈ 1.24 µM)
MIC Pseudomonas aeruginosa ATCC 27853 [9]: 1 µg/mL (≈ 0.618 µM)
MIC Salmonella typhimurium ATCC 14028 [10]: 2 µg/mL (≈ 1.24 µM)
MIC Serratia marcescens ATCC 29021 [11]: 8 µg/mL (≈ 4.94 µM)
MIC Staphylococcus aureus ATCC 25923 [12]: 1 µg/mL (≈ 0.618 µM)
MIC Trichophyton ATCC MYA-4438 [13]: 8 µg/mL (≈ 4.94 µM)
MIC Shigella flexneri ATCC 12022 [14]: 4 µg/mL (≈ 2.47 µM)
MIC MRSA [15]: 4 µg/mL (≈ 2.47 µM)
MIC CREC [16]: 8 µg/mL (≈ 4.94 µM)
MIC CRKP [17]: 4 µg/mL (≈ 2.47 µM)
MIC CRPA [18]: 2 µg/mL (≈ 1.24 µM)
MIC VRE [19]: 4 µg/mL (≈ 2.47 µM)
Trypsin MIC [20]: 1 µg/mL
Number of mice that died on each day after infection: day 1 ([21]; 0.2 mg/kg via tail vein): 3 Mouse
Number of mice that died on each day after infection: day 2 ([21]; 0.2 mg/kg via tail vein): 2 Mouse
Number of mice that died on each day after infection: day 3 ([21]; 0.2 mg/kg via tail vein): 0 Mouse
Number of mice that died on each day after infection: day 4 ([21]; 0.2 mg/kg via tail vein): 0 Mouse
Number of mice that died on each day after infection: day 5 ([21]; 0.2 mg/kg via tail vein): 0 Mouse
Average survival times (Days) ([21]; 0.2 mg/kg via tail vein): 7.7** Days
Number of mice that died on each day after infection: day 1 ([21]; 1 mg/kg via tail vein): 0 Mouse
Number of mice that died on each day after infection: day 2 ([21]; 1 mg/kg via tail vein): 0 Mouse
Number of mice that died on each day after infection: day 3 ([21]; 1 mg/kg via tail vein): 1 Mouse
Number of mice that died on each day after infection: day 4 ([21]; 1 mg/kg via tail vein): 0 Mouse
Number of mice that died on each day after infection: day 5 ([21]; 1 mg/kg via tail vein): 2 Mouse
Average survival times (Days) ([21]; 1 mg/kg via tail vein): 11.1**** Days
Number of mice that died on each day after infection: day 1 ([21]; 5 mg/kg via tail vein): 1 Mouse
Number of mice that died on each day after infection: day 2 ([21]; 5 mg/kg via tail vein): 0 Mouse
Number of mice that died on each day after infection: day 3 ([21]; 5 mg/kg via tail vein): 2 Mouse
Number of mice that died on each day after infection: day 4 ([21]; 5 mg/kg via tail vein): 0 Mouse
Number of mice that died on each day after infection: day 5 ([21]; 5 mg/kg via tail vein): 0 Mouse
Average survival times (Days) ([21]; 5 mg/kg via tail vein): 10.5**** Days
survival time of mice infected with Pseudomonas aeruginosa [21]: superior to those of the Levofloxacin group
remaining at 12 h, 0.91 mg/mL [22]: 98.1%

CC(=O)N[C@H](CCCNC(=N)N)C(=O)N[C@H](CCCCN)C(=O)N[C@H](CC(C)C)C(=O)N[C@H](CC(C)C)C(=O)N[C@H](Cc1ccc2ccccc2c1)C(=O)N[C@H](CCCNC(=N)N)C(=O)N[C@H](CC(C)C)C(=O)N[C@H](CCCCN)C(=O)N[C@H](Cc1ccc2ccccc2c1)C(=O)N[C@H](CCCNC(=N)N)C(=O)N[C@H](CCCCN)C(N)=O [LV-20] (Ac-[dR][dK][dL][dL][d2Nal][dR][dL][dK][d2Nal][dR][dK]-NH2)
MIC against Staphylococcus aureus (NRS 384) [1]: 1 µg/mL (≈ 0.607 µM)
MIC Bacillus subtilis ATCC 6633 [2]: 2 µg/mL (≈ 1.21 µM)
MIC Candida albicans ATCC MYA-2876 [3]: 4 µg/mL (≈ 2.43 µM)
MIC Candida glabrata ATCC 15126 [4]: 8 µg/mL (≈ 4.86 µM)
MIC Candida krusei ATCC 6258 (Candida krusei ATCC 6258): 8 µg/mL (≈ 4.86 µM)
MIC Candida tropicalis ATCC 750 [5]: 8 µg/mL (≈ 4.86 µM)
MIC Candida utilis ATCC 9950 (Candida utilis ATCC 9950): 8 µg/mL (≈ 4.86 µM)
MIC Corynebacterium ATCC 7715 [6]: 2 µg/mL (≈ 1.21 µM)
MIC Enterococcus ATCC 29212 (Enterococcus ATCC 29212): 4 µg/mL (≈ 2.43 µM)
MIC Escherichia coli ATCC 25922 [7]: 1 µg/mL (≈ 0.607 µM)
MIC Klebsiella pneumoniae ATCC 700603 [8]: 2 µg/mL (≈ 1.21 µM)
MIC Pseudomonas aeruginosa ATCC 27853 [9]: 1 µg/mL (≈ 0.607 µM)
MIC Salmonella typhimurium ATCC 14028 [10]: 1 µg/mL (≈ 0.607 µM)
MIC Serratia marcescens ATCC 29021 [11]: 2 µg/mL (≈ 1.21 µM)
MIC Staphylococcus aureus ATCC 25923 [12]: 1 µg/mL (≈ 0.607 µM)
MIC Trichophyton ATCC MYA-4438 [13]: 8 µg/mL (≈ 4.86 µM)
MIC Shigella flexneri ATCC 12022 [14]: 4 µg/mL (≈ 2.43 µM)
MIC MRSA [15]: 2 µg/mL (≈ 1.21 µM)
MIC CREC [16]: 8 µg/mL (≈ 4.86 µM)
MIC CRKP [17]: 8 µg/mL (≈ 4.86 µM)
MIC CRPA [18]: 4 µg/mL (≈ 2.43 µM)
MIC VRE [19]: 4 µg/mL (≈ 2.43 µM)
Trypsin MIC [20]: 1 µg/mL
Number of mice that died on each day after infection: day 1 ([21]; 0.2 mg/kg via tail vein): 2 Mouse
Number of mice that died on each day after infection: day 2 ([21]; 0.2 mg/kg via tail vein): 1 Mouse
Number of mice that died on each day after infection: day 3 ([21]; 0.2 mg/kg via tail vein): 2 Mouse
Number of mice that died on each day after infection: day 4 ([21]; 0.2 mg/kg via tail vein): 1 Mouse
Number of mice that died on each day after infection: day 5 ([21]; 0.2 mg/kg via tail vein): 0 Mouse
Average survival times (Days) ([21]; 0.2 mg/kg via tail vein): 7.0** Days
Number of mice that died on each day after infection: day 1 ([21]; 1 mg/kg via tail vein): 1 Mouse
Number of mice that died on each day after infection: day 2 ([21]; 1 mg/kg via tail vein): 1 Mouse
Number of mice that died on each day after infection: day 3 ([21]; 1 mg/kg via tail vein): 1 Mouse
Number of mice that died on each day after infection: day 4 ([21]; 1 mg/kg via tail vein): 0 Mouse
Number of mice that died on each day after infection: day 5 ([21]; 1 mg/kg via tail vein): 0 Mouse
Average survival times (Days) ([21]; 1 mg/kg via tail vein): 10.4**** Days
Number of mice that died on each day after infection: day 1 ([21]; 5 mg/kg via tail vein): 1 Mouse
Number of mice that died on each day after infection: day 2 ([21]; 5 mg/kg via tail vein): 2 Mouse
Number of mice that died on each day after infection: day 3 ([21]; 5 mg/kg via tail vein): 0 Mouse
Number of mice that died on each day after infection: day 4 ([21]; 5 mg/kg via tail vein): 0 Mouse
Number of mice that died on each day after infection: day 5 ([21]; 5 mg/kg via tail vein): 0 Mouse
Average survival times (Days) ([21]; 5 mg/kg via tail vein): 10.3**** Days
survival time of mice infected with Pseudomonas aeruginosa [21]: superior to those of the Levofloxacin group
remaining at 12 h, 0.91 mg/mL [22]: 98.2%
